Test results as given in US11643405B2, “Compound for treatment or prevention of liver diseases” (JIANGSU ATOM BIOSCIENCE AND PHARMACEUTICAL CO., LTD., priority 2018, dated 2023).
Values after ≈ are worked out from the molar mass of the structure shown. Marks after values point to notes of the source that are not given here.

What was measured:
[1] = test system: zebrafish non-alcoholic fatty liver; test: Fat reduction or elimination effect on thioacetamide-induced zebrafish non-alcoholic fatty liver (Oil Red O staining); type: in vivo; settings: 100 μM; for The total optical density of liver fat: mean ± SE, n = 10; for inhibition at 100 µM: Danio rerio, read-out: Inhibition rate of liver steatosis
Method: 40 mM stock solution of test compounds 4, 5, 6, 7, 46, 67, 78, 85, 92 and 101 were prepared with DMSO, and stored in a refrigerator at −20° C. The positive control compound S-adenosylmethionine (SAM) was purchased from Aladdin Reagent (Shanghai) Co., Ltd., with the batch number F1523051, which was prepared into a 50 mM stock solution with DMSO. The control compound silymarin was purchased from Shanghai Dibai Biotechnology Co., Ltd., with the batch number EE09, which was prepared into a 40 mM stock solution with DMSO. Thioacetamide was purchased from Sigma-Aldrich, with the batch number BCBV3031, which wasprepared into a 1 M stock solution with DMSO. Oil Red O was purchased from Sigma-Aldrich, with the batch number SLBP5248V. 4% paraformaldehyde was purchased from Dingguo Biotechnology Co., Ltd., with the batch number 773001800. Propylene glycol was purchased from Sinopharm Chemical Reagent Co., Ltd., with the batch number 20170615.
The melanin allele mutant translucent Albino line zebrafish was reproduced in natural paired mating. The fish age was 3 days after fertilization, with 30 fish per experimental group.
The above zebrafish were raised in fish farming water at 28° C. (water quality: 200 mg instant sea salt was added to 1 L of reverse osmosis water, conductivity was 480-510 μS/cm; pH was 6.9-7.2; hardness was 53.7-71.6 mg/L CaCOs), the experimental animal use license number was: SYXK (Zhejiang) 2012-0171. Feeding management met the requirements of international AAALAC certification.
Three days after fertilization, the normal melanin allele mutant translucent Albino strain of zebrafish was randomly selected and placed in a six well plate with 30 fish per well (i.e. each experimental group), and then thioacetamide with the final concentration of 7 mM was used to treat zebrafish for 72 hours to establish the non-alcoholic fatty liver model.
The zebrafish were transferred to a six-well plate, with 30 fish per well (i.e., each experimental group) randomly. Non-alcoholic fatty liver model in zebrafish were induced by thioacetamide. 40 mM test compounds 4, 5, 6, 7, 46, 67, 78, 85, 92 and 101 were quantitatively transferred to a six-well plate, and diluted with water to the corresponding concentration. Test compounds 4, 5, 6 and 7 were formulated into two dose groups with final concentration of 100 μM and 200 μM, respectively; test compound 46 was formulated into a dose group with final concentration of 200 μM; test compounds 67, 78, 85, 92 and 101 were formulated into dose groups with a final concentration of 100 μM; 50 mM positive control SAM was formulated with water to a dose group with final concentration of 50 μM, and a 40 mM positive control silymarin was formulated with water to two concentration dose groups with final concentration of 100 μM and 200 μM. A normal control group (zebrafish treated with fish farming water) and a model control group were set at the same time, and the total volume of each well was 3 mL. Except for the normal control group, the other experimental groups were treated with thioacetamide for 72 hours and stained with Oil Red O. After staining, 10 zebrafish were randomly selected from each experimental group and photographed under a dissecting microscope, NIS-Elements D 3.10 advanced image processing software was used to perform image analysis and collect data, the total optical density (S) of zebrafish liver fat was statistically analyzed, and for the inhibitory effect of each experimental group on liver steatosis of zebrafishwas evaluated by the following formula, the results of statistical analysis were expressed as mean±SE: Inhibition rate of liver steatosis (%)=[S(model control group)−S(test compound group)]/[S(model control group)−S(normal control group)]×100%
Statistical analysis was performed using analysis of variance and Dunnett's T-test, and p<0.05 indicated a significant difference. […]

[2] = Determination of compound solubility in PBS buffer (LC-MS/MS); type: physicochemical; settings: for solubility at 2 h: 25 °C, kinetic from dmso stock; for Solubility in PBS buffer solution compared with silymarin (in words): pH 4
Method: The test compounds were 7, 67 and 85, respectively; the control compound was silymarin, purchased from Shanghai Dibai Biotechnology Co., Ltd., with the batch number HH06. Both the test compounds and the control compound were prepared into 10 mM stock solutions using DMSO. Phosphate buffered saline (PBS), with pH of 4.0 and 7.4, was used to test the solubility of the test compounds.
Treatment of test compound and control compound: 30 μL of test compound or control compound stock solution (10 mM) per well was added in a specially made solubility sample plate, and then 970 μL of PBS with different pH was added to each well (pH was 4.0 and 7.4, respectively). Repeated wells were set in the test. A stir bar was added to each well that was covered with a polytetrafluoroethylene or silica gel plug. Stirring was performed at 25° C. at 1100 rpm for 2 hours. 10 μL of sample was taken from each well, and then 990 μL of water and acetonitrile mixture (including internal standard substance) was added to mix well, followed by filtering with a filter plate.
Standard treatment: 10 mM stock solution was diluted with DMSO to 300 μM, then 10 μL of compound diluent was taken, and 990 μL of water and acetonitrile mixture (including internal standard substance) was added to mix well and formulated into a standard solution with the final concentration 3 μM.
The solubility sample plate was placed in the autosampler and the LC-MS/MS method was used for analysis. The concentration of the test compound was calculated by the response value of the test compound and standard, and the concentration of the standard.

[3] = test system: Patients With Primary Biliary Cirrhosis; settings: phase III study; cited from earlier work
[4] = test system: adults with nonalcoholic steatohepatitis (NASH) and fibrosis stages F2-F3; settings: phase II clinical results; cited from earlier work

Row | solubility at 2 h ([2]; pH 4, aqueous buffer) [µM] | solubility at 2 h ([2]; pH 7.4, aqueous buffer) [µM] | Structure (SMILES) | Inhibition rate of liver steatosis [1] | Therapeutic effect on non-alcoholic fatty liver of zebrafish (in words) [1] | The total optical density of liver fat [1] [Pixels] | inhibition at 100 µM [1] [%] | Solubility in PBS buffer solution compared with silymarin (in words) [2] | patients with serious cardiovascular adverse events [3] [%] | subjects with improved fibrosis after treatment [4] [%]
1 | 160 (≈ 79.7 µg/mL) | 150 (≈ 75 µg/mL) | COc1cc(C2Oc3cc(C4Oc5cc(O)cc(OC)c5CC4O)cc(O)c3OC2CO)ccc1O (stereo not shown) [Compound 85, 2-{8-hydroxy-3-(4-hydroxy-3-methoxyphenyl)-2-hydroxymethyl-2,3-dihydrobenzo[b][1,4]dioxan-6-yl}-5-methoxychroman-3,7-diol] | >100*** % | significant therapeutic effects | 17378 ± 710 | > 100 | significantly higher than that of silymarin |  | 
2 |  |  | CC[C@H]1[C@@H](O)[C@@H]2[C@H](CC[C@]3(C)[C@@H]([C@H](C)CCC(=O)O)CC[C@@H]23)[C@@]2(C)CC[C@@H](O)C[C@@H]12 [Obeticholic acid] |  |  |  |  |  | 3 | 
3 |  |  | Cc1cc(F)c(C(=O)Nc2cccc(-c3nncn3C(C)C)n2)cc1-n1cnc(C2CC2)c1 [GS-4997] |  |  |  |  |  |  | 43
4 | 148 (≈ 73.9 µg/mL) | 146 (≈ 72.9 µg/mL) | COc1cc(O)c2c(c1)OC(c1cc(O)c3c(c1)OC(c1ccc(O)c(OC)c1)C(CO)O3)C(O)C2 (stereo not shown) [Compound 67, 2-{8-hydroxy-3-(4-hydroxy-3-methoxyphenyl)-2-hydroxymethyl-2,3-dihydrobenzo[b][1,4]dioxan-6-yl}-7-methoxychroman-3,5-diol] | >100*** % | significant therapeutic effects | 16667 ± 469 | > 100 | significantly higher than that of silymarin |  | 
